Entries after “also recorded” stand apart in the source; their conditions may differ.
Key:
[1] = as alternative to corticosteroid and/or immunosuppressive drugs; cited from earlier work
TGF-β signaling = conditions: low concentrations of paclitaxel; nude mouse model of scleroderma; cited from earlier work
[2] = tested on: collagen synthesis in the lung (bleomycin-induced lung fibrosis); assay: Bleomycin-induced lung fibrosis: fractional synthesis of collagen (2H2O labeling, GC/MS of OHP); assay type: in vivo, mice
Protocol: Bleomycin administration induces at least a three fold increase in the fractional synthesis of OHP as measured by GC/MS. Inhibition or reversal of the fibrotic response is determined by a reduction in OHP synthesis when compared with the bleomycin-vehicle control.
Animals: Female C57BU6 mice, 10 weeks of age at the start of the study were used. Food and water were available ad lib for the study duration. Study groups are as stated in table 1.
Protocol: Bleomycin (Sigma-Aldrich) was dissolved in sterile saline at a concentration of 1.05 U/ml. 30 μl of the bleomycin solution or the same volume of vehicle (sham control) was installed into the trachea of female C57BI/6 mice by the trans-oral route to yield a dose of 1.5 U/kg of bleomycin. […] Label (8% ^2H2O in drinking water) and drug administration continued for the 2 week study duration.
On the day following the last drug administration, the mice were placed under heavy anesthesia and blood was collected via cardiac puncture. The lung was perfused with isotonic saline, removed and weighed. The lung was homogenized with a MiniBeadbeater-96™ (Biospec, Bartlesville, Okla.) bead mill, and the total volume of homogenate was determined. The homogenate was subjected to acetone precipitation in order to obtain the total tissue protein for OHP assessment. The proteins were hydrolyzed by incubation in HCl, dried under vacuum and then suspended in a solution of 50% acetonitrile, 50 mM K2HPO4 and pentafluorobenzyl bromide before incubation. Derivatives were extracted into ethyl acetate, and the top layer was removed and dried by vacuum centrifugation. […] The derivatized OHP was analyzed by GC/MS, performed in the negative chemical ionization mode. […] Incorporation of ^2H into OHP was calculated as the molar fraction of molecules with one excess mass unit above the natural abundance fraction (EM1). Fractional synthesis (f) of collagen was calculated as the ratio of the EM1 value in protein-bound OHP to the maximal value possible at the body ^2H2O enrichment present. […]

[3] = tested on: total collagen (OHP) content of the lung (bleomycin-induced lung fibrosis); assay: Bleomycin-induced lung fibrosis: total OHP content of lung by chloramine-t assay; assay type: in vivo, mice; conditions: noscapine for 2 weeks after bleomycin 1.5 U/kg
Protocol: Protocol: Bleomycin (Sigma-Aldrich) was dissolved in sterile saline at a concentration of 1.05 U/ml. 30 μl of the bleomycin solution or the same volume of vehicle (sham control) was installed into the trachea of female C57BI/6 mice by the trans-oral route to yield a dose of 1.5 U/kg of bleomycin. […] Label (8% ^2H2O in drinking water) and drug administration continued for the 2 week study duration. […] In addition to the GC/MS analysis, the absolute amount of collagen in the samples was determined by a chloramine-t assay of total OHP, a well established colorimetric method for determining OHP content. Samples of the original homogenate (400 μl) were hydrolyzed (HCl, 500 μl), dried, re-suspended in 1 ml of assay buffer, and incubated overnight. 150 μl of the suspension was pipetted into wells of a 96 well plate. 75 μl of chloramine-t was added to the well and the plate was incubated at room temperature for 20 min. Dimethylaminobenzaldehyde (75 μl) was then added to each well. The plate was incubated at 60° C. for 15 min before being read on a microquant (Bio-Tek Instruments, Inc. MQX200) at 540 nm. OHP standards were prepared and analyzed with the samples. Results were analyzed using GraphPad Prism to interpolate values from the standard curve. […]

[4] = tested on: liver collagen content (ANIT-induced liver fibrosis); assay: ANIT-induced liver fibrosis: histological collagen content (Masson's Trichrome stain); assay type: in vivo, mice; conditions: noscapine administered with ANIT, FIG. 10
Protocol: Mice were fed a diet adulterated with 0.05% (w/w) ANIT or a control diet for two weeks in order to induce a fibrotic response in the liver. The mice were labeled with 8% ^2H2O (Spectra Stable Isotopes, Columbia, Md.) beginning on the day that ANIT administration began. […] A small sample (75 to 80 mg) of the liver was excised from the lateral right lobe, immediately fixed in formalin, and sent for histological examination (Premier Laboratory LLC, Longmont Colo., USA). Briefly, paraffin embedded slides were prepared from the formalin-fixed tissue and then treated with Masson's Trichrome stain for collagen distribution. Prepared slides were scanned, photographed, and subsequently analyzed for collagen content using ImageScope software (Aperio Technologies Inc., Vista Ca). Statistics: An analysis of variance followed by a Dunnett's test for comparison with ANIT/vehicle control was used to analyze the data (SigmaStat). Data were considered significant at p<0.05.

[5] = tested on: collagen synthesis in the liver (ANIT-induced liver fibrosis); assay: ANIT-induced liver fibrosis: fractional synthesis of collagen (2H2O labeling, GC/MS of OHP); assay type: in vivo, mice; conditions: for amount of newly synthesized collagen in the liver: separate study
Excerpt: Alpha-Naphthylisothiocyanate (ANIT) is a hepatotoxicant that damages biliary cells and hepatocytes. Prolonged exposure to ANIT induces bile duct hyperplasia and biliary fibrosis, as well as liver injury. ANIT is conjugated with glutathione in hepatocytes and secreted into the bile (reviewed in Xu, 2004). However, the ANIT-glutathione complexes are unstable and rapidly dissociate in the bile causing the hepatocytes to reuptake the drug. Recycling can continue for many rounds, delaying ANIT elimination and depleting glutathione. In addition to its direct cytotoxic effects, ANIT also induces a hepatic inflammatory response that contributes to the tissue injury. Chronic administration of ANIT to rodents results in a significant increase in liver collagen and is used as an animal model of liver fibrosis (Xu et al, 2004). […] Inhibition or reversal of the fibrotic response is determined by a reduction in collagen synthesis when compared with the ANIT-vehicle control.
Subjects: Female C57BU6 mice, 10 weeks of age at the start of the study were used. The animals were housed in groups of 5, under standard laboratory conditions, with food and water available ad lib. Study groups are as stated in table 2 (po signifies oral gavage).
Mice were fed a diet adulterated with 0.05% (w/w) ANIT or a control diet for two weeks in order to induce a fibrotic response in the liver. The mice were labeled with 8% ^2H2O (Spectra Stable Isotopes, Columbia, Md.) beginning on the day that ANIT administration began.
On the day following the last drug administration, mice were placed under heavy anesthesia, and the liver was perfused and removed. Liver tissue was homogenized with a MiniBeadbeater 96™ bead mill (Biospec, Bartlesville, Okla.) followed by acetone precipitation and vacuum drying. Proteins were hydrolyzed in 6 N HCl (110° C., 16 hours), dried under vacuum and suspended in 1 mL 50% acetonitrile, 50 mM K2HPO4, pH 11. Pentafluorobenzyl bromide was added before the sealed mixture was incubated (100° C.; 1 hour) and extracted into ethyl acetate. The top layer was removed and dried by addition of solid Na2SO4 followed by vacuum centrifugation. Samples were incubated with 50 μL methyl imidazole and 100 μL MTBSTFA, (100° C. for 30 min). The derivative was extracted in water/petroleum ether and dried with Na2SO4. Selected ion monitoring was at mass-to-charge ratios of 445, 446, and 447 for the OH-proline derivatives. Mole % excess M1 enrichment (EM1) and fractional synthesis (f) are calculated.
Statistics: An analysis of variance followed by a Dunnett's test for comparison with ANIT/vehicle control was used to analyze the data (SigmaStat). Data were considered significant at p<0.05.

[6] = tested on: α-SMA positive lung cells (activated myofibroblasts); assay: Bleomycin-induced lung fibrosis: histology of αSMA positive lung cells; assay type: in vivo, mice; conditions: relative to vehicle+bleomycin control; 2 weeks after bleomycin; FIG. 4
Protocol: Protocol: Bleomycin (Sigma-Aldrich) was dissolved in sterile saline at a concentration of 1.05 U/ml. 30 μl of the bleomycin solution or the same volume of vehicle (sham control) was installed into the trachea of female C57BI/6 mice by the trans-oral route to yield a dose of 1.5 U/kg of bleomycin. […] Label (8% ^2H2O in drinking water) and drug administration continued for the 2 week study duration. […] The differentiation of fibroblastic cells into myofibroblasts which express α-smooth muscle actin (α-SMA) is a major process the development of fibrosis. αSMA is a well recognized indicator of activated myofibroblasts. A small sample (5 to 20 mg) of the lung was excised from the center of the left lobe, immediately fixed in formalin, and sent for histological examination (Premier Laboratory LLC, Longmont Colo., USA). Briefly, paraffin embedded slides were prepared from the formalin-fixed tissue and then stained using an antibody for αSMA. Prepared slides were scanned, photographed, and subsequently analyzed for the presence of αSMA positive cells using ImageScope software (Aperio Technologies Inc., Vista Ca). Statistics: An analysis of variance followed by a Dunnett's test for comparison with drug vehicle/bleomycin control was used to analyze the data (SigmaStat). Data were considered significant at p<0.05.

[7] = tested on: OHP content of the liver (ANIT-induced liver fibrosis); assay: ANIT-induced liver fibrosis: absolute amount of OHP in liver by chloramine-t assay; assay type: in vivo, mice
Protocol: Mice were fed a diet adulterated with 0.05% (w/w) ANIT or a control diet for two weeks in order to induce a fibrotic response in the liver. The mice were labeled with 8% ^2H2O (Spectra Stable Isotopes, Columbia, Md.) beginning on the day that ANIT administration began. […] In addition to the GC/MS analysis, the absolute amount of OHP in the samples was determined by a chloramine-t assay as described above for the bleomycin studies. Statistics: An analysis of variance followed by a Dunnett's test for comparison with ANIT/vehicle control was used to analyze the data (SigmaStat). Data were considered significant at p<0.05.

For `COc1cc2c(c(OC)c1OC)-c1ccc(OC)c(=O)cc1[C@@H](NC(C)=O)CC2` [Colchicine, colchicine], the “safety and efficacy in the treatment of IPF” value [1] is listed as “safer, but not effective”.
In the case of `CC(=O)O[C@H]1C(=O)[C@@]2(C)[C@H]([C@H](OC(=O)c3ccccc3)[C@]3(O)C[C@H](OC(=O)[C@H](O)[C@@H](NC(=O)c4ccccc4)c4ccccc4)C(C)=C1C3(C)C)[C@]1(OC(C)=O)CO[C@@H]1C[C@@H]2O` [Paclitaxel, paclitaxel], the “Smad2 and Smad3 phosphorylation in SSc grafts” value (TGF-β signaling) is listed as “markedly suppressed Smad2 and Smad3 phosphorylation” and the “collagen deposition in SSc grafts” value (TGF-β signaling) is listed as “decreased collagen deposition”.
For `COc1ccc2c(c1OC)C(=O)O[C@@H]2[C@H]1c2c(cc3c(c2OC)OCO3)CCN1C` [noscapine], the “bleomycin-induced increase of collagen synthesis (fractional synthesis, percent labeled OHP, f)” value ([2]; noscapine 300 mg/kg po (oral gavage) for 2 weeks from the day of bleomycin, FIG. 5) was “blocked the bleomycin-induced increase of collagen synthesis”, the “percent of newly synthesized collagen (% new OHP, f)” value ([2]; noscapine in diet (2 g/kg food, approx. 300 mg/kg) for 2 weeks from the day of bleomycin, FIG. 6) was “tended to reduce the % new OH—P, but the effect was not statistically significant; also recorded: tended to reduce the percent of newly synthesized collagen” and the “bleomycin-induced increase of collagen synthesis (fractional synthesis, percent labeled OHP, f)” value ([2]; noscapine ip (10, 30, 100 mg/kg) for 2 weeks from the day of bleomycin 1.5 U/kg trans-oral, FIG. 1) was “blocked the bleomycin-induced increase of collagen synthesis”. The “total collagen (OHP) content of the lung” value ([3]; chloramine-t assay, FIG. 2) was “blocked by noscapine in a dose related manner”, the “absolute amount of newly synthesized collagen in the lung (f times total OHP content)” value ([3]; FIG. 3) was “significantly decreased” and the “histologically determined collagen content of liver” value [4] was “significantly decreased ANIT-induced collagen content; also recorded: significant decrease in collagen content”. For the same compound, the “ANIT-induced elevation of new OHP (percent labeled OHP, f) in the liver” value ([5]; noscapine at 30 and 100 mg/kg po, p<0.05 vs ANIT/vehicle, FIG. 7) was “significantly reduced the ANIT-induced elevation of OHP”, the “percent of newly synthesized collagen in the liver (percent labeled OHP, f)” value ([5]; noscapine po (oral gavage) 10, 30, 100 mg/kg with 0.05% ANIT diet for 2 weeks, FIG. 7) was “dose dependently reduced the percent of newly synthesized collagen” and the “amount of newly synthesized collagen in the liver” value ([5]; noscapine 300 mg/kg by oral gavage once per day with ANIT, FIG. 12) was “tended to decrease the amount of newly synthesized collagen”. For the same compound, the “amount of newly synthesized collagen in the liver” value ([5]; noscapine 300 mg/kg in the diet (2 g/kg food) with ANIT, FIG. 11) was “tended to decrease the amount of newly synthesized collagen”, the “number of alpha smooth muscle actin (αSMA) positive cells in lung” value [6] was “significantly reduced the number of myofibroblasts activated by bleomycin; also recorded: significantly decreased the number of alpha smooth muscle actin (αSMA) positive cells” and the “total amount of OHP in the whole liver” value ([7]; chloramine-t assay, noscapine po with ANIT for 2 weeks, vs ANIT plus vehicle control, FIG. 8) was “significantly reduced the ANIT-induced elevation of OHP content”. For the same compound, the “ANIT-induced elevation of collagen synthesis, absolute (f x [OHP]) in the liver” value ([7]; noscapine at 30 and 100 mg/kg po, p<0.05 vs ANIT/vehicle, FIG. 9) was “significantly reduced the ANIT-induced elevation of collagen synthesis” and the “amount of newly synthesized collagen in the whole liver (f x [OHP])” value ([7]; noscapine po with ANIT for 2 weeks, vs ANIT plus vehicle control, FIG. 9) was “significantly reduced”.
